Data published in patent US20240150377A1, “MODULATORS OF CYSTIC FIBROSIS TRANSMEMBRANE CONDUCTANCE REGULATOR” (VERTEX PHARMACEUTICALS INCORPORATED, priority 2020, published 2024).
Where two headings read alike, the source gives them in different places.

Molecular target: CFTR (Homo sapiens, UniProt P13569)
Assay: Membrane potential dye, Enteroid Assay B
Assay type: cell-based
Conditions: for Ent. B Max Activity: chloride transport as % of triple combination control (Enteroid Assay B); for EC50: read-out: Ent. B EC50
Summary of the method: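 Human intestinal enteroids were treated with compound in maintenance medium for 18-24 h at 37° C, then loaded with methyl oxonol membrane-potential dye (25 min, room temperature). Chloride transport was triggered in chloride-free buffer with 10 μM forskolin, 100 μM IBMX and 300 nM Compound III, fluorescence read 15 min; expressed as % of triple-combination control.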

[1] = Table 8, human enteroid cells, 18-24 hours, acute 10 μM forskolin and 300 nM ivacaftor
[2] = Table 7, human enteroid cells, 18-24 hours, acute 10 μM forskolin and 300 nM ivacaftor

Chain of CFTR (P13569 with tags, fused parts or gaps DEL508-508): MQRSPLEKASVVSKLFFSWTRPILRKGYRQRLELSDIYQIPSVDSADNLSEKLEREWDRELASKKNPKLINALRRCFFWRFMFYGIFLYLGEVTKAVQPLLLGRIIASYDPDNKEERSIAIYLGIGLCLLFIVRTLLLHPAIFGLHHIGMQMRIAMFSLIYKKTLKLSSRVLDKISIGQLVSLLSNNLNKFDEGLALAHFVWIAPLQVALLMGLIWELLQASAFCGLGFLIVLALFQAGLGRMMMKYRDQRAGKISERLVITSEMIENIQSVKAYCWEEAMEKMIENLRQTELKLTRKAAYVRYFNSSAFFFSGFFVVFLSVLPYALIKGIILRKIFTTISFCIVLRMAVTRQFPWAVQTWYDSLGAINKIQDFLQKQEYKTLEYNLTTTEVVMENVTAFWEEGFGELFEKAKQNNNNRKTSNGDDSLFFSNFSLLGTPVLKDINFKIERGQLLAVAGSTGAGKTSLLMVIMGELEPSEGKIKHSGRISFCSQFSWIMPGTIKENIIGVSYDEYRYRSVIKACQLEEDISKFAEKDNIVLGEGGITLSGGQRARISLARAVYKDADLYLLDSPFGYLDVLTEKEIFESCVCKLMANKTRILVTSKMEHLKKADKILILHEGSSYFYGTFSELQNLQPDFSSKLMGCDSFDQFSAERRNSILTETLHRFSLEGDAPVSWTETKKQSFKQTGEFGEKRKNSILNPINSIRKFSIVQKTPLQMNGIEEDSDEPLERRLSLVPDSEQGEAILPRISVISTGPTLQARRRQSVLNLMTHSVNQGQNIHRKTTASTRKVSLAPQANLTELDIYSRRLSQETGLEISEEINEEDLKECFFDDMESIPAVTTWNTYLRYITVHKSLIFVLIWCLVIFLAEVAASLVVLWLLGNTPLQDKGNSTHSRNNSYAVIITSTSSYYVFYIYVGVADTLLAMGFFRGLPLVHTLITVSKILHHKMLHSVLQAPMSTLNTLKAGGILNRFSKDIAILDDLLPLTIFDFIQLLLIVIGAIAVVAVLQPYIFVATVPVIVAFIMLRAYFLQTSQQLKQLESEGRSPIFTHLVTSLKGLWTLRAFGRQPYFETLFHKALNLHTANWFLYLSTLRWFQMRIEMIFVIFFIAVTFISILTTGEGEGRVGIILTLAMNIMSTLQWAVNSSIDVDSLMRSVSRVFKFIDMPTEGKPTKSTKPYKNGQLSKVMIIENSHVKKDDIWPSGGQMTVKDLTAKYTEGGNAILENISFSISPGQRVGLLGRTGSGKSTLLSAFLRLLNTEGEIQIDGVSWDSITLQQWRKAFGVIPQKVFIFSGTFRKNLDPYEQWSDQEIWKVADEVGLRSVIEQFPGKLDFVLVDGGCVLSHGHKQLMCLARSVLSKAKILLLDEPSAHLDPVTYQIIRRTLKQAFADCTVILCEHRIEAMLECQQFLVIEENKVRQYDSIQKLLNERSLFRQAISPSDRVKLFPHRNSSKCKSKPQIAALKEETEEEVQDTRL

Ent. B Max Activity (Table 8) | EC50 [1] [nM] | Ent. B Max Activity (%) (Table 9) | EC50 (Table 9) [nM] | further results | SMILES
+++ (+++ is >60%) | < 1000 |  |  |  | CC(=O)NCCCN1C(=O)c2cccc(c2)S(=O)(=O)Nc2nc(cc(-c3c(C)cccc3C)n2)OC[C@H]1CC(C)C [Compound 404]
+++ (+++ is >60%) | < 1000 |  |  |  | CC(=O)N(C)CCN1C(=O)c2cccc(c2)S(=O)(=O)Nc2nc(cc(-c3c(C)cccc3C)n2)OC[C@H]1CC(C)C [Compound 405]
+++ (+++ is >60%) | 1000 to 3000 |  |  |  | CNC(=O)CCCN1C(=O)c2cccc(c2)S(=O)(=O)Nc2nc(cc(-c3c(C)cccc3C)n2)OC[C@H]1CC(C)C [Compound 406]
 |  |  |  | Ent. B Max Activity (Table 7): +++ (+++ is >60%); EC50 [2]: 1000 to 3000 nM | Cc1cccc(C)c1-c1cc2nc(n1)NS(=O)(=O)c1cccc(c1)C(=O)N(CCCC(N)=O)[C@H](CC(C)C)CO2 [Compound 407]
 |  |  |  | Ent. B Max Activity (Table 7): +++ (+++ is >60%); EC50 [2]: < 1000 nM | Cc1cccc(C)c1-c1cc2nc(n1)NS(=O)(=O)c1cccc(c1)C(=O)N(CCCNC(=O)OC(C)C)[C@H](CC(C)C)CO2 [Compound 408]
 |  |  |  | Ent. B Max Activity (Table 7): +++ (+++ is >60%); EC50 [2]: < 1000 nM | COC(=O)NCCCN1C(=O)c2cccc(c2)S(=O)(=O)Nc2nc(cc(-c3c(C)cccc3C)n2)OC[C@H]1CC(C)C [Compound 409]
 |  |  |  | Ent. B Max Activity (Table 7): +++ (+++ is >60%); EC50 [2]: < 1000 nM | COC(=O)N(C)CCN1C(=O)c2cccc(c2)S(=O)(=O)Nc2nc(cc(-c3c(C)cccc3C)n2)OC[C@H]1CC(C)C [Compound 410]
 |  |  |  | Ent. B Max Activity (Table 7): +++ (+++ is >60%); EC50 [2]: < 1000 nM | Cc1cccc(C)c1-c1cc2nc(n1)NS(=O)(=O)c1cccc(c1)C(=O)N(CCCN(C)C)[C@H](CC(C)C)CO2 [Compound 411]
 |  |  |  | Ent. B Max Activity (Table 7): +++ (+++ is >60%); EC50 [2]: < 1000 nM | Cc1cccc(C)c1-c1cc2nc(n1)NS(=O)(=O)c1cccc(c1)C(=O)N(CCN(C)C)[C@H](CC(C)C)CO2 [Compound 412]
+++ (+++ is >60%) | < 1000 |  |  |  | COC(=O)Nc1cccc(CN2C(=O)c3cccc(c3)S(=O)(=O)Nc3nc(cc(-c4c(C)cccc4C)n3)OC[C@H]2CC(C)(C)C)c1 [Compound 506]
+++ (+++ is >60%) | < 1000 |  |  |  | Cc1cccc(C)c1-c1cc2nc(n1)NS(=O)(=O)c1cccc(c1)C(=O)N(Cc1cccc(NC(=O)OC(C)C)c1)[C@H](CC(C)(C)C)CO2 [Compound 507]
+++ (+++ is >60%) | < 1000 |  |  |  | Cc1cccc(C)c1-c1cc2nc(n1)NS(=O)(=O)c1cccc(c1)C(=O)N(Cc1ccc(NC(=O)OC(C)C)cc1)[C@H](CC(C)(C)C)CO2 [Compound 508]
+++ (+++ is >60%) | 1000 to 3000 |  |  |  | Cc1cccc(C)c1-c1cc2nc(n1)NS(=O)(=O)c1cccc(c1)C(=O)N(Cc1ncccn1)[C@H](CC(C)(C)O)CO2 [Compound 658]
++ (++ is 30-60%) | 1000 to 3000 |  |  |  | Cc1cccc(C)c1-c1cc2nc(n1)NS(=O)(=O)c1cccc(c1)C(=O)N(Cc1ncccn1)[C@H](CCC(C)(C)O)CO2 [Compound 659]
+ (+ is <30%) |  |  |  |  | Cc1cccc(C)c1-c1cc2nc(n1)NS(=O)(=O)c1cccc(c1)C(=O)N(CCCC(C)(C)O)[C@H](CCC(C)(C)O)CO2 [Compound 660]
++ (++ is 30-60%) | 1000 to 3000 |  |  |  | Cc1cccc(C)c1-c1cc2nc(n1)NS(=O)(=O)c1cccc(c1)C(=O)N(Cc1ccc(C(C)(C)O)cc1)[C@H](CCC(C)(C)O)CO2 [Compound 661]
+ (+ is <30%) | 1000 to 3000 |  |  |  | Cc1cccc(C)c1-c1cc2nc(n1)NS(=O)(=O)c1cccc(c1)C(=O)N(CCCC(C)(C)O)[C@H](CC(C)(C)O)CO2 [Compound 662]

Ent. B Max Activity (Table 8) | EC50 [1] [nM] | Ent. B Max Activity (%) (Table 9) | EC50 (Table 9) [nM] | further results | SMILES
+++ (+++ is >60%) | < 1000 |  |  |  | Cc1cccc(C)c1-c1cc2nc(n1)NS(=O)(=O)c1cccc(c1)C(=O)N(Cc1ccc(C(C)(C)O)cc1)[C@H](CC(C)(C)O)CO2 [Compound 663]
+++ (+++ is >60%) | < 1000 |  |  |  | Cc1cccc(C)c1-c1cc2nc(n1)NS(=O)(=O)c1cccc(c1)C(=O)N(CC1CC(C)(O)C1)[C@H](CC(C)(C)C)CO2 (stereo partly shown) [Compound 664]
+++ (+++ is >60%) | < 1000 |  |  |  | Cc1cccc(C)c1-c1cc2nc(n1)NS(=O)(=O)c1cccc(c1)C(=O)N(CC1CC(C)(O)C1)[C@H](CC(C)(C)C)CO2 (stereo partly shown) [Compound 665]
 |  | +++ (+++ is >600%) | < 1000 |  | Cc1cccc(C)c1-c1cc2nc(n1)NS(=O)(=O)c1cccc(c1)C(=O)N(Cc1cnc(C(C)(C)C)nc1)[C@H](CC(C)(C)C)CO2 [Compound 788]
 |  | +++ (+++ is >600%) | < 1000 |  | Cc1cccc(C)c1-c1cc2nc(n1)NS(=O)(=O)c1cccc(c1)C(=O)N(Cc1ccc(Oc3ncccn3)cc1)[C@H](CC(C)(C)C)CO2 [Compound 789]
 |  | +++ (+++ is >600%) | < 1000 |  | Cc1cccc(C)c1-c1cc2nc(n1)NS(=O)(=O)c1cccc(c1)C(=O)N(Cc1ccc(C#CC(C)(C)C#N)cc1)[C@H](CC(C)(C)C)CO2 [Compound 790]
 |  | +++ (+++ is >600%) | < 1000 |  | Cc1cccc(C)c1-c1cc2nc(n1)NS(=O)(=O)c1cccc(c1)C(=O)N(Cc1ccn3nccc3c1)[C@H](CC(C)(C)C)CO2 [Compound 791]
 |  | +++ (+++ is >600%) | < 1000 |  | Cc1cccc(C)c1-c1cc2nc(n1)NS(=O)(=O)c1cccc(c1)C(=O)N(Cc1ccc3c(c1)C(=O)NC3)[C@H](CC(C)(C)C)CO2 [Compound 792]
 |  | +++ (+++ is >600%) |  |  | CCCc1ccc(CN2C(=O)c3cccc(c3)S(=O)(=O)Nc3nc(cc(-c4c(C)cccc4C)n3)OC[C@H]2CC(C)(C)C)cc1 [Compound 793]
 |  | +++ (+++ is >600%) | < 1000 |  | Cc1cccc(C)c1-c1cc2nc(n1)NS(=O)(=O)c1cccc(c1)C(=O)N(C[C@H]1CC[C@@H](C(C)(C)O)CC1)[C@H](CC(C)(C)C)CO2 [Compound 796]
 |  | +++ (+++ is >600%) | < 1000 |  | Cc1cccc(C)c1-c1cc2nc(n1)NS(=O)(=O)c1cccc(c1)C(=O)N(CC1CCC(C(C)(C)O)CC1)[C@H](CC(C)(C)C)CO2 (stereo partly shown) [Compound 797]
 |  | +++ (+++ is >600%) | < 1000 |  | Cc1cccc(C)c1-c1cc2nc(n1)NS(=O)(=O)c1cccc(c1)C(=O)N(Cc1ccc3c(c1)CC(C)(C)O3)[C@H](CC(C)(C)C)CO2 [Compound 798]
 |  | +++ (+++ is >600%) | < 1000 |  | Cc1cccc(C)c1-c1cc2nc(n1)NS(=O)(=O)c1cccc(c1)C(=O)N(Cc1ccc3c(c1)NC(=O)C3)[C@H](CC(C)(C)C)CO2 [Compound 799]
 |  | +++ (+++ is >600%) | < 1000 |  | Cc1cccc(C)c1-c1cc2nc(n1)NS(=O)(=O)c1cccc(c1)C(=O)N(CC13CCC(O)(CC1)CC3)[C@H](CC(C)(C)C)CO2 [Compound 800]
 |  | +++ (+++ is >600%) | < 1000 |  | Cc1cccc(C)c1-c1cc2nc(n1)NS(=O)(=O)c1cccc(c1)C(=O)N(Cc1ccc(S(F)(F)(F)(F)F)cc1)[C@H](CC(C)(C)C)CO2 [Compound 801]
 |  | +++ (+++ is >600%) | < 1000 |  | Cc1cccc(C)c1-c1cc2nc(n1)NS(=O)(=O)c1cccc(c1)C(=O)N(Cc1ccc3c(c1)oc(=O)n3C)[C@H](CC(C)(C)C)CO2 [Compound 802]
